pIC50: −log10 of the molar value.
Each compound was assayed against T1, c-Met kinase (recombinant c-Met) (Homo sapiens, UniProt P08581) (assay: In vitro kinase assay I (homogeneous time-resolved fluorescence tyrosine kinase assay)).
T1 construct: 0.27 nM recombinant c-Met
Type: biochemical
Method in brief: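 Biotinylated peptide (0.5 μM) phosphorylated by 0.2 nM recombinant c-Met with 50 μM MgATP, 60 min at room temperature, pH 7.4, 5% DMSO. EDTA stop; HTRF read with Eu-anti-phosphotyrosine antibody and streptavidin-APC. IC50 from 4-parameter logistic fit.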

T1 sequence (P08581 25-1390): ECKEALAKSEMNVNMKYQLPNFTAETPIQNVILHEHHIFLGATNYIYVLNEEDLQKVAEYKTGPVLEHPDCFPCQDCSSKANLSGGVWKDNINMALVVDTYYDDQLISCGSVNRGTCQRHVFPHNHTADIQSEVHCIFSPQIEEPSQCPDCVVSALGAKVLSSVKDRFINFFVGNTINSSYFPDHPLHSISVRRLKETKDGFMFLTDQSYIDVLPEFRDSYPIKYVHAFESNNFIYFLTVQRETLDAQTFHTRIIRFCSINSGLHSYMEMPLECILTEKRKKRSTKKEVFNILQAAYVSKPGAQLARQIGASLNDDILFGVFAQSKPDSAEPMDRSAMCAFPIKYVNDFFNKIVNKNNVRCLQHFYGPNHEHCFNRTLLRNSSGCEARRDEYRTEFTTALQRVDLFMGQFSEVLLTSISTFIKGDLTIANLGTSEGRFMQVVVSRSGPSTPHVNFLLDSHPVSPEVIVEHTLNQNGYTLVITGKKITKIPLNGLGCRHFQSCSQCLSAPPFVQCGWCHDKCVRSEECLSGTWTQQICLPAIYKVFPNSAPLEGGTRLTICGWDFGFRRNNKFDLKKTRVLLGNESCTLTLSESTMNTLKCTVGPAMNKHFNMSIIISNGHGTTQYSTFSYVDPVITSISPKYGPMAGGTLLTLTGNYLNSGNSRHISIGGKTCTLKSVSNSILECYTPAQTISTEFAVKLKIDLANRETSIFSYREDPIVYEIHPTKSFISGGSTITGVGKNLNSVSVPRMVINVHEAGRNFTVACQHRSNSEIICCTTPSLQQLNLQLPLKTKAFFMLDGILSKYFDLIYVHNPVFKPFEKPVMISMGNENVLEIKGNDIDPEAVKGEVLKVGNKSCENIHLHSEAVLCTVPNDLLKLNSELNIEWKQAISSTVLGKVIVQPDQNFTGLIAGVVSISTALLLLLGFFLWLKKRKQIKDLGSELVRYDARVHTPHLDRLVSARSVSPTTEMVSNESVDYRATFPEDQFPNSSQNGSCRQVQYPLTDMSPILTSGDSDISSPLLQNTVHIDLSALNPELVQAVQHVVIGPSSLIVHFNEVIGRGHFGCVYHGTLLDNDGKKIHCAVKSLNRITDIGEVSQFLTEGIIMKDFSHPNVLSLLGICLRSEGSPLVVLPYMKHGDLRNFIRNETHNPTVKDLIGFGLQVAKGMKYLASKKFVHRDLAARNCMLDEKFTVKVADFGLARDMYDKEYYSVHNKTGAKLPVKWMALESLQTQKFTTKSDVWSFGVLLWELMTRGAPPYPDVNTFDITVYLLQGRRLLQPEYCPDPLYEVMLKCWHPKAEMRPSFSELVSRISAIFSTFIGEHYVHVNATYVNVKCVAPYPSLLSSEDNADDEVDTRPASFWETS

First: Cn1cc(-n2ccc(=O)c(Cc3cccc(-c4ccn(C)n4)c3)n2)cn1 [Example 39, 1-(1-methyl-1H-pyrazol-4-yl)-3-[3-(1-methyl-1H-pyrazol-3-yl)benzyl]pyridazin-4(1H)-one]
Second: Cc1cnc(-c2cccc(Cc3nn(-c4cnn(C)c4)ccc3=O)c2)[nH]1 [Example 672, 3-[3-(5-Methyl-1H-imidazol-2-yl)benzyl]-1-(1-methyl-1H-pyrazol-4-yl)pyridazin-4(1H)-one]
The pIC50 of the first is higher: 6.00 to 7.00 for the first, 5.52 to 6.00 for the second.

`CCOc1cnc(-c2cccc(Cc3nn(-c4cncc(C#N)c4)ccc3=O)c2)nc1` [Example 136, 5-{3-[3-(5-ethoxypyrimidin-2-yl)benzyl]-4-oxopyridazin-1(4H)-yl}pyridine-3-carbonitrile] and `COc1cnc(-c2cccc(Cc3nn(-c4cncc(C#N)c4)ccc3=O)c2)nc1` [Example 733, 5-{3-[3-(5-Methoxypyrimidin-2-yl)benzyl]-4-oxopyridazin-1(4h)-yl}pyridine-3-carbonitrile] cannot be ordered by pIC50: greater than 7.00 for the first, greater than 7.00 for the second.

`Cn1cc(-n2ccc(=O)c(Cc3cccc(-c4ncc(OCCn5cncn5)cn4)c3)n2)cn1` [Example 271, 1-(1-methyl-1H-pyrazol-4-yl)-3-(3-{5-[2-(1H-1,2,4-triazol-1-yl)ethoxy]pyrimidin-2-yl}benzyl)pyridazin-4(1H)-one] and `Cn1cc(-n2ccc(=O)c(Cc3cccc(-c4ncc(OCC(O)CF)cn4)c3)n2)cn1` (racemic) [Example 369, rac-3-{3-[5-(3-fluoro-2-hydroxypropoxy)pyrimidin-2-yl]benzyl}-1-(1-methyl-1H-pyrazol-4-yl)pyridazin-4(1H)-one] cannot be ordered by pIC50: greater than 7.00 for the first, greater than 7.00 for the second.

First: CC(C)COC(=O)Nc1cccc(Cc2nn(-c3cnn(C4CCOCC4)c3)ccc2=O)c1 [Example 90, 2-methylpropyl [3-({4-oxo-1-[1-(tetrahydro-2H-pyran-4-yl)-1H-pyrazol-4-yl]-1,4-dihydropyridazin-3-yl}methyl)phenyl]carbamate]
Second: CC(C)COC(=O)Nc1cccc(Cc2nn(-c3cnn(C4CCOC4)c3)ccc2=O)c1 (racemic) [Example 99, rac-2-methylpropyl [3-({4-oxo-1-[1-(tetrahydrofuran-3-yl)-1H-pyrazol-4-yl]-1,4-dihydropyridazin-3-yl}methyl)phenyl]carbamate]
The pIC50 of the first is lower: 6.00 to 7.00 for the first, greater than 7.00 for the second. The second is the more potent here.

`CC(c1cccc(-c2nccc(C(F)F)n2)c1)c1nn(-c2cnn(C)c2)ccc1=O` (single isomer, unassigned) [Example 690, 3-[(1R or S)-1-{3-[4-(Difluoromethyl)pyrimidin-2-yl]phenyl}ethyl]-1-(1-methyl-1H-pyrazol-4-yl)pyridazin-4(1H)-one] and `CC(c1cccc(-c2ncc(OCC(C)(C)O)cn2)c1)c1nn(-c2cnn(C)c2)ccc1=O` (single isomer, unassigned) [Example 380, 3-((1S or R)-1-{3-[5-(2-hydroxy-2-methylpropoxy)pyrimidin-2-yl]phenyl}ethyl)-1-(1-methyl-1H-pyrazol-4-yl)pyridazin-4(1H)-one] cannot be ordered by pIC50: greater than 7.00 for the first, greater than 7.00 for the second.

Compared with `O=c1ccn(-c2ccc(Cl)cc2)nc1Cc1ccc(O)cc1` [Example 754, 1-(4-Chlorophenyl)-3-(4-hydroxybenzyl)pyridazin-4(1H)-one], `CCOc1cnc(-c2cccc(Cc3nn(-c4ccc(Cl)c(F)c4)ccc3=O)c2)nc1` [Example 152, 1-(4-chloro-3-fluorophenyl)-3-[3-(5-ethoxypyrimidin-2-yl)benzyl]pyridazin-4(1H)-one] is higher in pIC50: 6.00 to 7.00 for the first, greater than 7.00 for the second.

`Cn1cc(-n2ccc(=O)c(Cc3cccc(-c4ncc(OCC5CCOC(C)(C)C5)cn4)c3)n2)cn1` (racemic) [Example 269, rac-3-(3-{5-[(2,2-dimethyltetrahydro-2H-pyran-4-yl)methoxy]pyrimidin-2-yl}benzyl)-1-(1-methyl-1H-pyrazol-4-yl)pyridazin-4(1H)-one] and `Cn1cc(-n2ccc(=O)c(Cc3cccc(-c4ncc(OCC5(F)CCOCC5)cn4)c3)n2)cn1` [Example 388, 3-(3-{5-[(4-fluorotetrahydro-2H-pyran-4-yl)methoxy]pyrimidin-2-yl}benzyl)-1-(1-methyl-1H-pyrazol-4-yl)pyridazin-4(1H)-one] cannot be ordered by pIC50: greater than 7.00 for the first, greater than 7.00 for the second.

`CCn1cc(-n2ccc(=O)c(C(C)c3cccc(-c4ncc(OCCO)cn4)c3)n2)cn1` (single isomer, unassigned) [Example 295, 1-(1-ethyl-1H-pyrazol-4-yl)-3-[(1R or S)-1-{3-[5-(2-hydroxyethoxy)pyrimidin-2-yl]phenyl}ethyl]pyridazin-4(1H)-one] and `CCn1cc(-n2ccc(=O)c(C(C)c3cccc(-c4ncc(OCC5CCO5)cn4)c3)n2)cn1` (single isomer, unassigned) [Example 296, 1-(1-ethyl-1H-pyrazol-4-yl)-3-[(1R or S)-1-{3-[5-(oxetan-2-ylmethoxy)primidin-2-yl]phenyl}ethyl]pyridazin-4(1H)-one] cannot be ordered by pIC50: greater than 7.00 for the first, greater than 7.00 for the second.

Compared with `CCOC(=O)Nc1cccc(C(F)c2nn(-c3ccccc3)ccc2=O)c1` (racemic) [Example 640, rac-Ethyl-{3-[fluoro(4-oxo-1-phenyl-1,4-dihydropyridazin-3-yl)methyl]phenyl}carbamate], `CCC(COC(=O)Nc1cccc(Cc2nn(-c3cccc(C#N)c3)ccc2=O)c1)OC` (racemic) [Example 581, rac-2-methoxybutyl (3-{[1-(3-cyanophenyl)-4-oxo-1,4-dihydropyridazin-3-yl]methyl}phenyl)carbamate] is higher in pIC50: 6.00 to 7.00 for the first, greater than 7.00 for the second.

`CCOc1cnc(-c2cccc(Cc3nn(-c4cnn(C)c4)ccc3=O)c2)nc1C` [Example 177, 3-[3-(5-ethoxy-4-methylpyrimidin-2-yl)benzyl]-1-(1-methyl-1H-pyrazol-4-yl)pyridazin-4(1H)-one] and `CCc1nc(-c2cccc(Cc3nn(-c4cnn(C)c4)ccc3=O)c2)no1` [Example 739, 3-[3-(5-Ethyl-1,2,4-oxadiazole-3-yl)benzyl]-1-(1-methyl-1H-pyrazol-4-yl)pyridazin-4(1H)-one] cannot be ordered by pIC50: greater than 7.00 for the first, greater than 7.00 for the second.

`CCn1cc(-n2ccc(=O)c(Cc3cccc(-c4ncc(OCc5ccccc5)cn4)c3)n2)cn1` [Example 71, 3-{3-[5-(benzyloxy)pyrimidin-2-yl]benzyl}-1-(1-ethyl-1H-pyrazol-4-yl)pyridazin-4(1H)-one] and `CCn1cc(-n2ccc(=O)c(Cc3cccc(-c4ncc(OCc5noc(C)n5)cn4)c3)n2)cn1` [Example 314, 1-(1-ethyl-1H-pyrazol-4-yl)-3-(3-{5-[(5-methyl-1,2,4-oxadiazol-3-yl)methoxy]pyrimidin-2-yl}benzyl)pyridazin-4(1H)-one] cannot be ordered by pIC50: greater than 7.00 for the first, greater than 7.00 for the second.

`CNC(=O)CCn1cc(-n2ccc(=O)c(Cc3cccc(NC(=O)OCC(C)C)c3)n2)cn1` [Example 702, 2-methylpropyl {3-[(1-{1-[3-(methylamino)-3-oxopropyl]-1H-pyrazol-4-yl}-4-oxo-1,4-dihydropyridazin-3-yl)methyl]phenyl} carbamate] and `Cn1cc(-n2ccc(=O)c(Cc3cccc(NC(=O)OCCN4CCOCC4)c3)n2)cn1` [Example 531] cannot be ordered by pIC50: greater than 7.00 for the first, greater than 7.00 for the second.

`O=c1ccn(-c2ccc(F)c(F)c2)nc1Cc1cccc(-c2ncc(OC3CCOC3)cn2)c1` (racemic) [Example 327, rac-1-(3,4-difluorophenyl)-3-{3-[5-(tetrahydrofuran-3-yloxy)pyrimidin-2-yl]benzyl}pyridazin-4(1H)-one] and `COCCOc1cnc(-c2cccc(Cc3nn(-c4ccc(F)c(F)c4)ccc3=O)c2)nc1` [Example 317, 1-(3,4-difluorophenyl)-3-{3-[5-(2-methoxyethoxy)pyrimidin-2-yl]benzyl}pyridazin-4(1H)-one] cannot be ordered by pIC50: greater than 7.00 for the first, greater than 7.00 for the second.

`CCOc1cnc(-c2cc(F)cc(Cc3nn(-c4cnn(C)c4)ccc3=O)c2)nc1` [Example 120, 3-[3-(5-ethoxypyrimidin-2-yl)-5-fluorobenzyl]-1-(1-methyl-1H-pyrazol-4-yl)pyridazin-4(1H)-one] and `COC/C=C/c1cnc(-c2cccc(Cc3nn(-c4cnn(C)c4)ccc3=O)c2)nc1` [Example 402, 3-(3-{5-[(1E)-3-methoxyprop-1-en-1-yl]pyrimidin-2-yl}benzyl)-1-(1-methyl-1H-pyrazol-4-yl)pyridazin-4(1H)-one] cannot be ordered by pIC50: greater than 7.00 for the first, greater than 7.00 for the second.

`O=C(Nc1cccc(Cc2nn(-c3cc(F)c(F)c(F)c3)ccc2=O)c1)OCCCn1cccc1` [Example 548, 3-(1H-pyrrol-1-yl)propyl (3-{[4-oxo-1-(3,4,5-trifluorophenyl)-1,4-dihydropyridazin-3-yl]methyl}phenyl)carbamate] and `O=C(Nc1cccc(Cc2nn(-c3cc(F)c(F)c(F)c3)ccc2=O)c1)OCCn1cncn1` [Example 552, 2-(1H-1,2,4-triazol-1-yl)ethyl (3-{[4-oxo-1-(3,4,5-trifluorophenyl)-1,4-dihydropyridazin-3-yl]methyl}phenyl)carbamate] cannot be ordered by pIC50: greater than 7.00 for the first, greater than 7.00 for the second.

`Cn1cc(-n2ccc(=O)c(Cc3cccc(-c4ncc(C(=O)NCC5COCCO5)cn4)c3)n2)cn1` (racemic) [Example 476, rac-N-(1,4-dioxan-2-ylmethyl)-2-(3-{[1-(1-methyl-1H-pyrazol-4-yl)-4-oxo-1,4-dihydro-pyridazin-3-yl]methyl}phenyl)pyrimidine-5-carboxamide] and `Cn1cc(-n2ccc(=O)c(Cc3cccc(-c4ncc(N5CCS(=O)(=O)CC5)cn4)c3)n2)cn1` [Example 448, 3-{3-[5-(1,1-dioxidothio-morpholin-4-yl]pyrimidin-2-yl]benzyl}-1-(1-methyl-1H-pyrazol-4-yl)pyridazin-4(1H)-one] cannot be ordered by pIC50: greater than 7.00 for the first, greater than 7.00 for the second.

`CC(C)(O)COc1cnc(-c2cccc(Cc3nn(-c4cccc(C#N)c4)ccc3=O)c2)nc1` [Example 361, 3-[3-{3-[5-(2-hydroxy-2-methylpropoxy)pyrimidin-2-yl]benzyl}-4-oxopyridazin-1(4H)-yl]benzonitrile] and `CC(C)(O)COc1cnc(-c2cccc(Cc3nn(-c4cc(F)cc(C#N)c4)ccc3=O)c2)nc1` [Example 6, 3-Fluoro-5-[3-{3-[5-(2-hydroxy-2-methylpropoxy)pyrimidin-2-yl]benzyl}-4-oxopyridazin-1(4H)-yl]benzonitrile] cannot be ordered by pIC50: greater than 7.00 for the first, greater than 7.00 for the second.
